Patent publication US20120078529A1, “DETERMINING THE SEVERITY OF 5-FLUOROURACIL OVERDOSE” (WELLSTAT THERAPEUTICS CORPORATION, priority 2009, published 2012)
Entries after “also recorded” stand apart in the source; their conditions may differ. Where two headings read alike, the source gives them in different places.

Assays:
[1] = cited from earlier work
5FU overdose [2] = settings: cited from earlier work
[3] = cited from earlier work; remark: listed apart in the source
[4] = 5-fluorouracil toxicity severity score calculation; design: species or system human; settings: base ten logarithms, dose in mg, administration rate in mg/hr
Excerpt: This invention provides a method of determining a 5-fluorouracil toxicity severity score for a patient receiving 5-fluorouracil, comprising calculating the square root of the sum of: (a) the square of the logarithm of the dose of 5-fluorouracil administered to the patient; and (b) the square of the logarithm of the administration rate of the 5-fluorouracil to the patient.
The severity score can be represented by the following equation:
Severity Score=[(log Dose)^2+(log Rate)^2]^1/2
Typically the logarithm is a base-ten logarithm (log10):
ti Severity Score=[(log10 Dose)^2+(log10 Rate)^2]^1/2
In accordance with this invention the dose and the dose rate can be expressed in any units, including all units that are conventional for expressing drug doses and dose rates. […] Whether they should receive vistonuridine should be evaluated on a case-by-case basis by the patient's physician. When units other than milligrams and mg/hr are utilized or a power relationship other than log10 is utilized in the calculation, the severity score will have a different numerical value and the skilled artisan can readily calculate the corresponding cut-offs distinguishing among lethal, seriously toxic but nonlethal, and nontoxic, doses. […]

lethal 5FU overdose = experiment: Vistonuridine antidote after lethal 5FU overdose in mice; type: in vivo
Procedure: Uridine is a specific pharmacologic antidote for 5FU poisoning. It reduces 5FU toxicity when taken up prior to the onset of cell death. However uridine has poor oral bioavailability (about 7%). Vistonuridine (chemical name: 2′,3′,5′-tri-O-acetyluridine) is an oral prodrug of uridine. […] Vistonuridine is rapidly converted to circulating uridine by deacetylation (FIG. 2). It is an effective antidote against 5FU poisoning when administered up to 48 hours or more after a lethal 5FU overdose in mice, and up to 96 hours or more in humans. (See Example 1 below).

5FU overdose [5] = experiment: Patients overdosed with 5FU treated with vistonuridine as an antidote; type: in vivo, human
Procedure: Seventeen patients overdosed with 5FU have been treated with vistonuridine as an antidote. Patients received vistonuridine (10 g q6h for 20 doses) beginning 8 to 96 hours after overdose. Data from 13 patients with similar 5FU overdoses provide the time course and outcomes for patients receiving available supportive care without vistonuridine. A severity score, integrating dose and infusion rate, was calculated for all the patients, and this tool could be used by healthcare workers to determine the expected severity and outcome of a 5FU overdose.
Wellstat Therapeutics Corporation was contacted by physicians of patients who had received 5FU overdoses, most due to infusion pump errors. Emergency Investigational New Drug approvals (INDs) were obtained from the U.S. Food and Drug Administration (FDA), and vistonuridine was promptly shipped or couriered to the clinics. Patients received vistonuridine beginning 8 to 96 hours after 5FU.

O=c1ccn([C@@H]2O[C@H](CO)[C@@H](O)[C@H]2O)c(=O)[nH]1 [uridine, Uridine]
Oral bioavailability [1]: about 7%

O=c1[nH]cc(F)c(=O)[nH]1 [5FU, 5-Fluorouracil]
Outcome of the 11 literature-reported 5FU overdose cases with predicted death (5FU overdose [2]; 11 cases, available supportive care, no vistonuridine): die from the overdose | Observed Outcome (5FU overdose [2]; individual 5FU overdose patient, best supportive care without vistonuridine): Death; also recorded: Recovered | Patients receiving 5FU who will develop a toxic reaction ([3]; about 275,000 US cancer patients receive 5FU annually, NIH estimate): about 3% | Patients who die each year from 5FU overexposure ([3]; human, in vivo): more than 1300 patients | Severity score that indicates a lethal dose [4]: ≥ 4.5

CC(=O)OC[C@H]1O[C@@H](n2ccc(=O)[nH]c2=O)[C@H](OC(C)=O)[C@@H]1OC(C)=O [Vistonuridine, 2′,3′,5′-tri-O-acetyluridine]
Time after lethal 5FU overdose at which the antidote is still effective (lethal 5FU overdose): ≥ 48 h | Outcome of all 17 overdose patients treated with vistonuridine (5FU overdose [5]; 17 patients, most with relatively modest toxicity): recovered fully | Time after 5FU overdose at which the antidote is still effective (5FU overdose [5]; humans): ≥ 96 h | Observed Outcome (5FU overdose [5]; individual 5FU overdose patient, vistonuridine 10 g q6 hr for 20 doses beginning 8 to 96 hours after the 5FU overdose): Recovered
